The target in assay [1] is single beta-lactamase in K. pneumoniae cell extracts (Klebsiella pneumoniae, UniProt P0AD64, E235K/G234S). Put plainly: Spectrophotometric hydrolysis assay on crude beta-lactamase extracts. The following applies: K. pneumoniae Pit 82 extract, beta-lactamase pI 8.2; 100 μM substrate.
Assay [2] deals with single beta-lactamase in K. pneumoniae cell extracts (Klebsiella pneumoniae, UniProt P0AD64, G234S). Described as above. The following applies: K. pneumoniae Pit 100 extract, beta-lactamase pI 7.6; 100 μM substrate.
The target in assay [3] is single beta-lactamase in K. pneumoniae cell extracts (Escherichia coli, UniProt P62593, E102K/R162S). The description is as above. The note with it: K. pneumoniae Pit 16 extract, beta-lactamase pI 5.6; 100 μM substrate.
Assay [4] addresses single beta-lactamase in P. mirabilis cell extracts (Escherichia coli, UniProt P62593, E102K/R162S). The assay is described as above. The following applies: P. mirabilis Pit 85 extract, beta-lactamase pI 5.6; 100 μM substrate.
Assay [5] has as its target single beta-lactamase in E. coli cell extracts (Escherichia coli, UniProt P62593, E102K/R162S). The description is as above. The following applies: E. coli Pit 64 extract, beta-lactamase pI 5.6; 100 μM substrate.
The subject of assay [6] is K. pneumoniae 225. Put plainly: Three-dimensional test (enzymatic inactivation of antibiotics). The note with it: beta-lactamase-mediated hydrolysis by K. pneumoniae 225, lawn E. coli ATCC 25922.
Assay [7] deals with K. pneumoniae 225. Put plainly: NCCLS disk diffusion assay. It counts as cell-based, Klebsiella pneumoniae. The following applies: disk diffusion, Kleb 225.
The subject of assay [8] is E. coli C600N transconjugants. Put plainly: Susceptibility of transconjugants. In kind it is cell-based, Escherichia coli. The note with it: E. coli C600N transconjugants of E. aerogenes 187, 200, 220, 184. How it is done: (§1) Antibiotic susceptibilities were determined by standard disk-diffusion (NCCLS Standard M2-A6) and agar-dilution (NCCLS Standard M7-A4) procedures. Disks were obtained from Becton Dickinson Microbiology Systems (Cockeysville, Md.). Disk-diffusion susceptibilities to the following antibiotics were determined, ampicillin; amoxicillin clavulanic acid; aztreonam; cefazolin; cefoxitin; cefuroxime; cefotaxime; ceftriaxone; ceftazidime; cefepime; imipenem; gentamicin; trimethoprim/sulfamethoxazole and ciprofloxacin. […] The following quality control strains were run simultaneously with the test organisms Escherichia coli ATCC 25922, Pseudomonas aeruginosa ATCC 27853, and E. coli ATCC 35218. Throughout this study, results were interpreted using NCCLS criteria for disk diffusion (NCCLS M2-A6) and broth dilution (NCCLS M7-A4).
[…]. The filter paper mating technique with overnight incubation at 37° C. were performed as described previously (Philippon et al., Antimicrob. Agents Chemother., 33:1131-1136 (1989)). Transconjugants were selected on LB (Luria Bertani) agar [Difco (Detroit, Mich.)] plates containing 12 μg per ml nalidixic acid and 20 μg per ml ampicillin.

The test system of a further assay is E. coli. The assay can be described thus: Agar dilution MIC, South African isolates. It counts as cell-based, Escherichia coli. The note with it: tzp with tazobactam 4 μg/ml. The source says: (§2) The strains were provided in response to a request for all strains of Enterobacteriaceae, lacking inducible beta-lactamases, that were intermediate or resistant to cefotaxime or ceftazidime. […]

Assay [9] has as its system E. coli C600 transconjugant. The note with it: disk diffusion, Tc = transconjugate E. coli C600.
The subject of another assay is P. mirabilis. The assay can be described thus: Agar dilution MIC, South African isolates. It counts as cell-based, Proteus mirabilis. The following applies: 4 strains, tzp with tazobactam 4 μg/ml. The source says: During a period of three months in 1993, […] strains of Klebsiella pneumoniae (13 blood, 5 burn, 7 wound, 11 tracheal isolates), 4 strains of Proteus mirabilis (all wound isolates) and 4 strains of Escherichia coli (1 blood, 1 burn, 2 wound isolates) were collected from patients at the following medical centers in South Africa: Tygerberg Hospital near Cape Town, King Edward VIII Hospital in Durban, Chris Hani Baragwanath Hospital in Soweto and Pretoria Academic Hospital in Pretoria. The strains were provided in response to a request for all strains of Enterobacteriaceae, lacking inducible beta-lactamases, that were intermediate or resistant to cefotaxime or ceftazidime. […] Therefore accurate prevalence data were not obtained.
Antibiotic susceptibility was determined by standard disk diffusion (NCCLS Standard M2-T4, 1994) and agar dilution (NCCLS Standard M7-T2, 1994) procedures. Standard powders of antimicrobial agents were kindly provided by the following companies: piperacillin and tazobactam (Lederle Laboratories, Wayne, N.J.); cefoxitin and imipenem, (Merck, Rathway, N.J.); cefotaxime, (Hoechst-Roussel Pharmaceuticals Inc., Somerville, N.J.); ceftazidime, (Glaxo Group Research Ltd., Greenford, England); aztreonam and cefepime, (Bristol-Myers Squibb, Princeton, N.J.). Disks for agar diffusion were obtained from Becton Dickinson Microbiology Systems (Cockeysville, Md.). For quality control purposes, the following quality control strains were run simultaneously with the test organisms E. coli ATCC 25922, Pseudomonas aeruginosa ATCC 27853, E. coli ATCC 35218, and Staphylococcus aureus ATCC 29213. Throughout this study, results were interpreted using NCCLS criteria for disk diffusion (NCCLS Standard M2-T4, 1994) and broth dilution (NCCLS Standard M7-T2, 1994).

The subject of assay [10] is K. pneumoniae 225. The assay can be described thus: NCCLS microdilution susceptibility test. It counts as cell-based, Klebsiella pneumoniae. The note with it: Klebsiella pneumoniae, 225.
Another assay deals with K. pneumoniae. The assay can be described thus: Agar dilution MIC, South African isolates. The following applies: tzp with tazobactam 4 μg/ml. It counts as cell-based, Klebsiella pneumoniae.
Description: as §2

For assay [11], the system named is E. coli HB101 transformant (17 kb plasmid). The following applies: disk diffusion, Tr (17 kb) = transformant E. coli HB101.
Assay [12] has as its system beta-lactamases in sonic extracts of E. aerogenes. Put plainly: Isoelectric focusing overlay: cefotaxime hydrolysis, inhibitors, induction. The note with it: cefoxitin at 1/4 of the MIC.
Assay [13] has as its system E. aerogenes. It counts as cell-based, Enterobacter aerogenes. How it is done: Antibiotic susceptibilities were determined by standard disk-diffusion (NCCLS Standard M2-A6) and agar-dilution (NCCLS Standard M7-A4) procedures. Disks were obtained from Becton Dickinson Microbiology Systems (Cockeysville, Md.). […] Throughout this study, results were interpreted using NCCLS criteria for disk diffusion (NCCLS M2-A6) and broth dilution (NCCLS M7-A4).

In assay [14] the test system is K. pneumoniae 225. The assay can be described thus: MicroScan Walkaway microdilution susceptibility test. In kind it is cell-based, Klebsiella pneumoniae. The note with it: K. pneumoniae 225.
Assay [15] has as its system E. aerogenes. The assay can be described thus: Disk diffusion susceptibility test. It counts as cell-based, Enterobacter aerogenes. The following applies: all the E. aerogenes strains. How it is done: as §1
Where [16] appears, read: resistance phenotype Ec1, 3 strains.
Setting [17] is: resistance phenotype Ec2, 1 strain.
Setting [18] is: resistance phenotype Kpn1, 8 strains.
Setting [19] is: resistance phenotype Kpn2, 28 strains.
The mark [20] stands for this setting: 1 E. aerogenes strain with Bush group 1 and group 2be (SHV-3) enzymes.
Setting [21] is: 1 E. aerogenes strain with Bush group 1 and group 2be (SHV-5) enzymes.
Setting [22] is: 29 E. aerogenes strains with Bush group 1 and group 2be (SHV-4) enzymes.

Like-named read-outs stand apart in the source and are kept apart here.

Take `O=C(Cc1cccs1)N[C@@H]1C(=O)N2C(C(=O)O)=C(/C=C/c3ccc([N+](=O)[O-])cc3[N+](=O)[O-])CS[C@H]12` [Nitrocefin]: the Hydrolysis in assay [1] is listed as 136 nmol of substrate hydrolyzed/m; in [2], 159 nmol of substrate hydrolyzed/m; in assay [3], 114 nmol of substrate hydrolyzed/m; in [4], 138 nmol of substrate hydrolyzed/m; in assay [5], 275 nmol of substrate hydrolyzed/m.
`C[C@H]1[C@H](NC(=O)/C(=N\OC(C)(C)C(=O)O)c2csc(N)n2)C(=O)N1S(=O)(=O)O` [aztreonam]: the three dimensional test entry in the assay on K. pneumoniae 225 [6] was “positive”. Further, the “Zone Size” value in the assay on K. pneumoniae 225 [7] is 8 mm; in [9], 7 mm; in [11], 33 mm. The Hydrolysis is recorded as 0.9 nmol of substrate hydrolyzed/m in [1]; 0.9 nmol of substrate hydrolyzed/m in [2]; 0.6 nmol of substrate hydrolyzed/m in assay [3]; 0.5 nmol of substrate hydrolyzed/m in assay [4]; 0.4 nmol of substrate hydrolyzed/m in assay [5]. The “susceptibility after transfer of plasmids encoding SHV beta-lactamase genes” value (from here on “susceptibility after transfer”) in assay [8] was “decreased susceptibility”. The MIC range in the assay with E. coli (setting [16]) is 16 µg/mL; in the assay with E. coli (setting [17]), 2 µg/mL; in the assay with P. mirabilis it was 0.5 to 2 µg/mL; with K. pneumoniae (setting [18]) it was 16 to 64 µg/mL; in the assay on K. pneumoniae (setting [19]) it was 1 to 128 µg/mL; in the assay on K. pneumoniae (resistance phenotype Kpn3 (K. pneumoniae Pit 68), 1 strain, listed as atm), 2 µg/mL. In addition, the MIC in the assay with K. pneumoniae 225 [10] was > 64 µg/mL.
In the case of `CO[C@@]1(NC(=O)Cc2cccs2)C(=O)N2C(C(=O)O)=C(COC(N)=O)CS[C@@H]21` [cefoxitin], the three dimensional test entry in the assay with K. pneumoniae 225 [6] was “positive”. Also, the “Zone Size” value with K. pneumoniae 225 [7] is recorded as 6 mm; in assay [9], 7 mm; in assay [11], 25 mm. The MIC range in the assay on E. coli (setting [16]) is 4 µg/mL; in the assay on E. coli (setting [17]), 8 µg/mL; with P. mirabilis, 2 to 4 µg/mL; in the assay with K. pneumoniae (setting [18]), 2 to 4 µg/mL; with K. pneumoniae (setting [19]), 2 to 8 µg/mL; in the assay with K. pneumoniae (resistance phenotype Kpn3 (K. pneumoniae Pit 68), 1 strain), > 128 µg/mL. Further, the MIC range in the assay on K. pneumoniae (resistance phenotype Kpn3 (K. pneumoniae Pit 68), 1 strain, listed as fox) was >128 µg/mL; against E. aerogenes [13] (setting [20]), >256 µg/mL; in the assay with E. aerogenes [13] (setting [21]), >256 µg/mL; in the assay on E. aerogenes [13] (setting [22]), >256 µg/mL. Besides, the Inducible by cefoxitin entry is “yes” in [12] (SHV-3 strain (1), Bush group 1 enzyme pI 8.3); “no” in assay [12] (SHV-3 strain (1), Bush group 2be enzyme pI 6.9); “yes” in assay [12] (SHV-4 strains (29), Bush group 1 enzyme pI 8.3); “no” in [12] (SHV-4 strains (29), Bush group 2be enzyme pI 7.8); “yes” in [12] (SHV-5 strain (1), Bush group 1 enzyme pI 8.3); “no” in assay [12] (SHV-5 strain (1), Bush group 2Be enzyme pI 8.0). In addition, the minimal inhibitory concentration (MIC) in the assay on K. pneumoniae 225 [10] was > 64 µg/mL.
With gentamicin, the figures for the “Zone Size” value (in the assay with K. pneumoniae 225 [7]; in assay [9]; in assay [11]) were 8 mm, 8 mm and 25 mm, respectively. Also, the “susceptibility after transfer” value in [8] is recorded as “resistance”. Moreover, the MIC range against E. aerogenes [13] (setting [20]) was 8 µg/mL; against E. aerogenes [13] (setting [21]), >128 µg/mL; in the assay with E. aerogenes [13] (setting [22]), 1 to 16 µg/mL. In addition, in the assay with K. pneumoniae 225 [14], the MicroScan susceptibility result is given as “Resistant”.
For trimethoprim/sulfamethoxazole, the “Zone Size” value in the assay on K. pneumoniae 225 [7] is on record as 6 mm; in [9] it was 8 mm; in [11] it was 31 mm. Further, in assay [8], the “susceptibility after transfer” value is reported as “resistance”. In the assay on E. aerogenes [15], the Disk diffusion susceptibility result is “resistant”. Besides, the MicroScan susceptibility result in the assay on K. pneumoniae 225 [14] is “Resistant”. Moreover, the “MicroScan MIC” value in the assay with K. pneumoniae 225 [14] (MicroScan test, unit not given) is recorded as > 2/38.

Values taken from patent US6893846B2, “Primers for use in detecting beta-lactamases” (priority 1998, dated 2005).
